According to patent US20230382924A1, “MODULATORS OF CYSTIC FIBROSIS TRANSMEMBRANE CONDUCTANCE REGULATOR” (VERTEX PHARMACEUTICALS INCORPORATED, priority 2020, published 2023):
Read-outs that look alike come from different tables or passages of the source.

Biological target: CFTR (Homo sapiens, UniProt P13569)
Assay: Membrane Potential Dye, Enteroid Assay A
Type: cell-based
Conditions: for EC50: read-out: Ent. A EC50
Outline: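 Signal is reported as % Activity relative to a triple CFTR modulator control (3 μM + 3 μM + 300 nM acute). Read-out: membrane potential fluorescence (20 μM methyl oxonol) monitored for 15 min after chloride-free stimulation. Dye loading took 25 min at room temperature in Bath 1 buffer containing CaCC blockers.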

CFTR, sequence (P13569 with tags, fused parts or gaps DEL508-508): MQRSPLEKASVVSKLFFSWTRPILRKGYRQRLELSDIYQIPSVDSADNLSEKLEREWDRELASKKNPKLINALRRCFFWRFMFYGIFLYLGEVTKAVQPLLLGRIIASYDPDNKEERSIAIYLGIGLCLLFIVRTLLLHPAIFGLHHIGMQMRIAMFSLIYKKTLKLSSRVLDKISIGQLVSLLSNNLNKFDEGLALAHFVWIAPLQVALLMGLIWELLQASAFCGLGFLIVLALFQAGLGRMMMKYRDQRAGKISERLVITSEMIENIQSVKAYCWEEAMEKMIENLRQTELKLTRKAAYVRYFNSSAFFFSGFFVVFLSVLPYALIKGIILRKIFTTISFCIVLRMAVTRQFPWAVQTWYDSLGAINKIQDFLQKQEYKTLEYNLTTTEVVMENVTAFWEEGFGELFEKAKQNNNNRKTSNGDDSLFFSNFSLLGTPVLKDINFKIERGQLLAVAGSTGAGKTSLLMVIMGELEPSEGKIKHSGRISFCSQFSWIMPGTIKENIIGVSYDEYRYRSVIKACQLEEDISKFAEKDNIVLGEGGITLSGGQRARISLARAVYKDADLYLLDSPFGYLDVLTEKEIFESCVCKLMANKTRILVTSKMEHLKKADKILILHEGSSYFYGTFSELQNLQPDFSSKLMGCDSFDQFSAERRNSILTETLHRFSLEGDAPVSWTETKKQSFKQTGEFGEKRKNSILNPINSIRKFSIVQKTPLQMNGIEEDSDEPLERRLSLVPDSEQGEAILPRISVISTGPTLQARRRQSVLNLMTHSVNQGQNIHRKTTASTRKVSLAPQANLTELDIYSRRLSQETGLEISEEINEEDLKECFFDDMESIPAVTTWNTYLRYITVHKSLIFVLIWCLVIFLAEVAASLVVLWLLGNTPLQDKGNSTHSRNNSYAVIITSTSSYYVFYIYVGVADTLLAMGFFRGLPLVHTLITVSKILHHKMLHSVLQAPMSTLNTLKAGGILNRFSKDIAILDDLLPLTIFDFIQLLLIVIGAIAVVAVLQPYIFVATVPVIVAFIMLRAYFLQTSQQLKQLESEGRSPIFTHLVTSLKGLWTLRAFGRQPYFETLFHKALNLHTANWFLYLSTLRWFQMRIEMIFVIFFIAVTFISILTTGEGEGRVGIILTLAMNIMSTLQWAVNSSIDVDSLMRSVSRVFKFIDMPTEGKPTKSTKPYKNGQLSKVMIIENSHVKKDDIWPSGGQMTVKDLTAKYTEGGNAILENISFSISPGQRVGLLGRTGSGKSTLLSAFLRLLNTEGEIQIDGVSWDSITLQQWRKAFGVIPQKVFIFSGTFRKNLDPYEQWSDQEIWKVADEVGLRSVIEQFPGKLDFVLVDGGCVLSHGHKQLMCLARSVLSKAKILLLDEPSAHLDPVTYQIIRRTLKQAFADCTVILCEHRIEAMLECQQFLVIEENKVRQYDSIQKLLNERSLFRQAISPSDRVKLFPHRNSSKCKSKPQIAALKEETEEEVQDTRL

SMILES | EC50 (Table 9) [nM] | Ent. A Max Activity (Table 8) | also measured
CC(C)C[C@@H]1COc2cc(-c3ccccc3C3CC3)nc(n2)NS(=O)(=O)c2cccc(c2)C(=O)N1 [Compound 105, (11R)-6-(2-cyclopropylphenyl)-11-(2-methylpropyl)-9-oxa-2λ^6-thia-3,5,12,19-tetraazatricyclo[12.3.1.14,8]nonadeca-1(17),4(19),5,7,14(18),15-hexaene-2,2,13-trione] |  |  | Ent. A Max Activity (Enteroid Assay A): +++ (+++ is >600%); EC50 (Enteroid Assay A): < 1000 nM
Cc1cc(C(F)(F)F)n(-c2cc3nc(n2)NS(=O)(=O)c2cccc(c2)C(=O)N[C@H](CC(C)C)CO3)n1 [Compound 109, (11R)-6-[3-methyl-5-(trifluoromethyl)-1H-pyrazol-1-yl]-11-(2-methylpropyl)-9-oxa-2λ^6-thia-3,5,12,19-tetraazatricyclo[12.3.1.14,8]nonadeca-1(17),4,6,8(19),14(18),15-hexaene-2,2,13-trione] |  | + (+ is <30%) | EC50 (Table 8): < 1000 nM
Cc1cccc(C)c1-c1cc2nc(n1)NS(=O)(=O)c1cccc(c1)C(=O)N[C@H](C(C)C)CO2 [Compound 112, (11R)-6-(2,6-Dimethylphenyl)-11-(propan-2-yl)-9-oxa-2λ^6-thia-3,5,12,19-tetraazatricyclo[12.3.1.14,8]nonadeca-1(17),4,6,8(19),14(18),15-hexaene-2,2,13-trione] |  |  | Ent. A Max Activity (Enteroid Assay A): +++ (+++ is >600%); EC50 (Enteroid Assay A): < 1000 nM
Cc1cccc(C)c1-c1cc2nc(n1)NS(=O)(=O)c1cccc(c1)C(=O)NCC(c1ccc3c(c1)OCCO3)O2 (stereo not shown) [Compound 116] |  | +++ (+++ is >60%) | EC50 (Table 8): < 1000 nM
Cc1cc(C2CNC(=O)c3cccc(c3)S(=O)(=O)Nc3nc(cc(-c4c(C)cccc4C)n3)O2)cc2c1OC(C)(C)C2 (stereo not shown) [Compound 119] |  | + (+ is <30%) | 
Cc1cccc(C)c1-c1cc2nc(n1)NS(=O)(=O)c1cccc(c1)C(=O)NCC(c1ccc(CC[Si](C)(C)C)cc1)O2 (stereo not shown) [Compound 127] | < 1000 |  | 
Cc1cccc(C)c1-c1cc2nc(n1)NS(=O)(=O)c1cccc(c1)C(=O)NCC(c1ccc(C[Si](C)(C)C)cc1)O2 (stereo not shown) [Compound 128] | < 1000 |  | 
Cc1cccc(C)c1-c1cc2nc(n1)NS(=O)(=O)c1cccc(c1)C(=O)N[C@@H](CC(C)(C)C)[C@H](C)O2 [Compound 130] | < 1000 |  | Ent. A Max Activity (Table 9): +++ (+++ is >60%)
CC[C@H]1NC(=O)c2cccc(c2)S(=O)(=O)Nc2nc(cc(-c3c(C)cccc3C)n2)O[C@@H]1c1ccc(C(C)(C)C)cc1 [Compound 133] | < 1000 |  | Ent. A Max Activity (Table 9): +++ (+++ is >60%)
Cc1cccc(C)c1-c1cc2nc(n1)NS(=O)(=O)c1cc(cc(-c3ccc(C(C)(C)C)cc3)c1)C(=O)N[C@H](CC(C)C)CO2 [Compound 135] |  | + (+ is <30%) | 
Cc1cccc(C)c1-c1cc2nc(n1)NS(=O)(=O)c1cc(cc(C3CC3)c1)C(=O)N[C@H](CC(C)C)CO2 [Compound 136] |  | + (+ is <30%) | 
Cc1cccc(C)c1-c1cc2nc(n1)NS(=O)(=O)c1cc(cc(C3CCCCC3)c1)C(=O)N[C@H](CC(C)C)CO2 [Compound 137] |  | + (+ is <30%) | 
Cc1cccc(C)c1-c1cc2nc(n1)NS(=O)(=O)c1cc(cc(C3CCOCC3)c1)C(=O)N[C@H](CC(C)C)CO2 [Compound 138] |  | + (+ is <30%) | 
Cc1cccc(C)c1-c1cc2nc(n1)NS(=O)(=O)c1cc(cc(C3=CCCCC3)c1)C(=O)N[C@H](CC(C)C)CO2 [Compound 139] |  | + (+ is <30%) | 
Cc1cccc(C)c1-c1cc2nc(n1)NS(=O)(=O)c1cccc(c1)C(=O)N[C@H](CC1CCCCC1)[C@@H](C)O2 [Compound 144] |  | +++ (+++ is >60%) | EC50 (Table 8): < 1000 nM
Cc1cccc(C)c1-c1cc2nc(n1)NS(=O)(=O)c1cccc(c1)C(=O)NCC(c1ccc(CC3(C(F)(F)F)CC3)cc1)O2 (stereo not shown) [Compound 147] | < 1000 |  | Ent. A Max Activity (Table 9): +++ (+++ is >60%)
Cc1cccc(C)c1-c1cc2nc(n1)NS(=O)(=O)c1cccc(c1)C(=O)NCC(c1ccc(C(C)(C)C#N)cc1)O2 (stereo not shown) [Compound 152] |  | + (+ is <30%) | 
Cc1cccc(C)c1-c1cc2nc(n1)NS(=O)(=O)c1cccc(c1)C(=O)N[C@H](CC1CCCCC1)[C@@H](c1ccc(C(C)(C)C)cc1)O2 [Compound 154] |  | +++ (+++ is >60%) | EC50 (Table 8): < 1000 nM
COc1cccc(C2CNC(=O)c3cccc(c3)S(=O)(=O)Nc3nc(cc(-c4c(C)cccc4C)n3)O2)c1 (stereo not shown) [Compound 158] |  | +++ (+++ is >60%) | EC50 (Table 8): < 1000 nM
Cc1ccccc1[C@@H]1Oc2cc(-c3c(C)cccc3C)nc(n2)NS(=O)(=O)c2cccc(c2)C(=O)N[C@@H]1CC(C)C [Compound 162] |  |  | EC50 (Enteroid Assay A): < 1000 nM
COc1cc(Cc2cccc(C)c2-c2cc3nc(n2)NS(=O)(=O)c2cccc(c2)C(=O)N[C@H](CC(C)C)CO3)cc(OC)c1 [Compound 167] | < 1000 |  | Ent. A Max Activity (Table 9): +++ (+++ is >60%)
Cc1cccc(Cc2ccccc2)c1-c1cc2nc(n1)NS(=O)(=O)c1cccc(c1)C(=O)N[C@H](CC(C)C)CO2 [Compound 168] | < 1000 |  | Ent. A Max Activity (Table 9): +++ (+++ is >60%)

Now from value to compound, other results behind:

EC50 (Table 9) [nM] | Ent. A Max Activity (Table 8) | SMILES | also measured
3000 to 30000 |  | Cc1cccnc1-c1cc2nc(n1)NS(=O)(=O)c1cccc(c1)C(=O)N[C@H](CC(C)C)CO2 [Compound 108, (11R)-11-Isobutyl-6-(3-methyl-2-pyridyl)-2,2-dioxo-9-oxa-2λ^6-thia-3,5,12,19-tetrazatricyclo[12.3.1.14,8]nonadeca-1(18),4(19),5,7,14,16-hexaen-13-one] | Ent. A Max Activity (Table 9): ++ (++ is 30-60%)
 | +++ (+++ is >60%) | Cc1cccc(C)c1-c1cc2nc(n1)NS(=O)(=O)c1cccc(c1)C(=O)NCC(c1ccc3c(c1)C(C)(C)CCC3(C)C)O2 (stereo not shown) [Compound 117] | EC50 (Table 8): < 1000 nM
 | + (+ is <30%) | COCCOc1ccc(C2CNC(=O)c3cccc(c3)S(=O)(=O)Nc3nc(cc(-c4c(C)cccc4C)n3)O2)cc1 (stereo not shown) [Compound 120] | 
< 1000 |  | Cc1cccc(C)c1-c1cc2nc(n1)NS(=O)(=O)c1cccc(c1)C(=O)N[C@H](CC1CCCCC1)[C@@H](C1CC1)O2 [Compound 131] | Ent. A Max Activity (Table 9): +++ (+++ is >60%)
< 1000 |  | CC[C@H]1NC(=O)c2cccc(c2)S(=O)(=O)Nc2nc(cc(-c3c(C)cccc3C)n2)O[C@H]1c1ccc(C(C)(C)C)cc1 [Compound 132] | Ent. A Max Activity (Table 9): +++ (+++ is >60%)
 | + (+ is <30%) | Cc1cccc(C)c1-c1cc2nc(n1)NS(=O)(=O)c1cccc(c1)C(=O)N[C@H](C)[C@H](c1ccc(C(C)(C)C)cc1)O2 [Compound 134] | EC50 (Table 8): < 1000 nM
< 1000 |  | Cc1cccc(C)c1-c1cc2nc(n1)NS(=O)(=O)c1cccc(c1)C(=O)NC[C@@H](c1ccc(CCC3(C(F)(F)F)CC3)cc1)O2 [Compound 145] | Ent. A Max Activity (Table 9): ++ (++ is 30-60%)
 | + (+ is <30%) | CCC(C)(C)c1ccc(C2CNC(=O)c3cccc(c3)S(=O)(=O)Nc3nc(cc(-c4c(C)cccc4C)n3)O2)cc1 (stereo not shown) [Compound 153] | EC50 (Table 8): 3000 to 30000 nM
 | +++ (+++ is >60%) | Cc1cc(C(C)(C)C)ccc1C1CNC(=O)c2cccc(c2)S(=O)(=O)Nc2nc(cc(-c3c(C)cccc3C)n2)O1 (stereo not shown) [Compound 157] | EC50 (Table 8): < 1000 nM
 | + (+ is <30%) | Cc1cccc(C)c1-c1cc2nc(n1)NS(=O)(=O)c1cccc(c1)C(=O)NC(C(F)(F)F)CO2 (stereo not shown) [Compound 171] | 
